Experimental data from patent publication US20180244611A1, “Modulators of the Cystic Fibrosis Transmembrane Conductance Regulator Protein and Methods of Use” (AbbVie S.à.r.l., priority 2017, published 2018).

Assays:
F508delCFTR [1] = biological target: T1, F508delCFTR (Homo sapiens, UniProt P13569, DEL508-508); test: Cell Surface Expression-Horse Radish Peroxidase (CSE-HRP) assay, test compound without co-corrector; type: cell-based; conditions: for Emax: maximum at any tested concentration, without co-corrector; for EC50: test compound without co-corrector;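 for Emax: percent of on-plate 2 µM positive control corrector response over DMSO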
T1 construct: expressed in transfected cells; host or cells: CFBE41o- human lung-derived epithelial cells (CFBE41o-F508delCFTR-HRP), doxycycline-inducible
How it was run: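 Compound without co-corrector was tested at eight 3-fold concentrations, top 20 μM, for 18-24 h at 33° C on doxycycline-induced (0.5 μg/mL, 72 h) CFBE41o- F508delCFTR-HRP cells. After DPBS washes, luminol luminescence gave % activity relative to on-plate positive control minus DMSO; EC50 came from triplicate-plate sigmoidal fitting.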

F508delCFTR [2] = biological target: T1, F508delCFTR; test: Cell Surface Expression-Horse Radish Peroxidase (CSE-HRP) assay, test compound with co-corrector; type: cell-based; conditions: for Maximum % activity (with co-corrector): maximum at any tested concentration;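 for Maximum % activity (with co-corrector): percent of 2 µM positive control corrector over DMSO; co-corrector is that same compound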
How it was run: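 Surface-expression read-out: luminol luminescence from an HRP tag in the fourth exofacial loop of F508delCFTR, in doxycycline-induced (0.5 μg/mL, 72 h) CFBE41o- cells. Compound plus 2 μM co-corrector added for 18-24 h at 33° C., 8-point 3-fold series up to 20 μM. EC50 from a sigmoidal fit with variable Hill slope, normalised to positive control, triplicate plates.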

[3] = normalized to positive control, with 2 μM co-corrector
[4] = normalized to on-plate positive control
[5] = CSE-HRP assay, test compound with 2 μM co-corrector
[6] = normalized to on-plate positive control, with 2 μM co-corrector

T1 sequence (P13569 with tags, fused parts or gaps DEL508-508): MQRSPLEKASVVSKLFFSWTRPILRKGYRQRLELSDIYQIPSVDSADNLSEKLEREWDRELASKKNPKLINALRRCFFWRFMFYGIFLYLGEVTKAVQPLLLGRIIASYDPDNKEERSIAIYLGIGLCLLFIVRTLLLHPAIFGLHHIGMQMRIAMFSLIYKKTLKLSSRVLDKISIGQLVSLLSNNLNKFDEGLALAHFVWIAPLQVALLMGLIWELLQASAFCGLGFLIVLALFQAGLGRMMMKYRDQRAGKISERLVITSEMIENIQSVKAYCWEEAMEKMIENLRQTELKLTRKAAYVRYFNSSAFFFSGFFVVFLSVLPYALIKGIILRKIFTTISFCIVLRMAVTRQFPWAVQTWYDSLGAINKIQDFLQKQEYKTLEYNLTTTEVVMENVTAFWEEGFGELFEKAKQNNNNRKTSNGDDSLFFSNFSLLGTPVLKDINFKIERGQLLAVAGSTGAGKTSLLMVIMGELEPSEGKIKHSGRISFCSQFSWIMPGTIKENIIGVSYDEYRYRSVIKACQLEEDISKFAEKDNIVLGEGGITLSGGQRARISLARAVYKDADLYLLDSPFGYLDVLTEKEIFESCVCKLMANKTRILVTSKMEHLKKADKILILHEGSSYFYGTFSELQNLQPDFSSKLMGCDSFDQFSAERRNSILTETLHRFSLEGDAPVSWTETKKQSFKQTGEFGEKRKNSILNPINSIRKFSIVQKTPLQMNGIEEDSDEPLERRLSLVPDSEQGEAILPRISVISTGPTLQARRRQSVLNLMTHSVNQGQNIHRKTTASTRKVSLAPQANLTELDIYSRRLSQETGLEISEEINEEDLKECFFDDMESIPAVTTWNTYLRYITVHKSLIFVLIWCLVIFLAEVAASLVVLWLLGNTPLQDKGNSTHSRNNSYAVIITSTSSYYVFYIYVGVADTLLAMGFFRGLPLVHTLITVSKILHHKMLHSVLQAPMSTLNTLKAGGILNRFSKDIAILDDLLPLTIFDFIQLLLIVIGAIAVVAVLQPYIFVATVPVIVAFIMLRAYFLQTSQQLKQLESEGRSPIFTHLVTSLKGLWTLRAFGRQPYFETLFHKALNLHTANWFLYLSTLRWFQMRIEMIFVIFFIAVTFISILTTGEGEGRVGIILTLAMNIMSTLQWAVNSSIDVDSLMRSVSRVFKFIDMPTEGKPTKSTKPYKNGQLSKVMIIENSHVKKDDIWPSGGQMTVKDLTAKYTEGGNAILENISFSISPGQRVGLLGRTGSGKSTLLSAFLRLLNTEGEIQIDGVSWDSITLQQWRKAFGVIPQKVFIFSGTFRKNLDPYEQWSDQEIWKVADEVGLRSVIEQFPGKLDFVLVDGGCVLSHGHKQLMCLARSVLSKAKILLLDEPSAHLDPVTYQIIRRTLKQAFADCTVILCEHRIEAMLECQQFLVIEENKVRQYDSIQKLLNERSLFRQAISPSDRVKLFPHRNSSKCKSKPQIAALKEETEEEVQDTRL

Emax (F508delCFTR [1]; normalized to positive control) | EC50 (F508delCFTR [1]) | Maximum % activity (with co-corrector) (F508delCFTR [2]; [3]) | EC50 (F508delCFTR [2]; with 2 μM co-corrector) | EC50 (F508delCFTR [1]; CSE-HRP assay) | Emax (F508delCFTR [1]; [4]) | EC50 (F508delCFTR [2]; [5]) | Maximum % activity (with co-corrector) (F508delCFTR [2]; [6]) | Compound
< 50% | ≥ 10 µM | + (<150) | ≥ 10 µM | – | – | – | – | COc1cccc2c1CCC2C(=O)NS(=O)(=O)c1cc(F)ccc1Cl (centres unmarked) [III-75]
< 50% | ≥ 10 µM | + (<150) | ≥ 10 µM | – | – | – | – | COc1cccc2c1CCC2C(=O)NS(=O)(=O)c1c(Cl)cccc1Cl (centres unmarked) [III-76]
< 50% | ≥ 10 µM | + (<150) | ≥ 10 µM | – | – | – | – | COc1cccc2c1CCC2C(=O)NS(=O)(=O)c1ccc(F)cc1F (centres unmarked) [III-77]
< 50% | ≥ 10 µM | + (<150) | ≥ 10 µM | – | – | – | – | COCCn1cc(S(=O)(=O)NC(=O)C2CCc3c(OC)cccc32)cn1 (centres unmarked) [III-78]
< 50% | ≥ 10 µM | + (<150) | ≥ 10 µM | – | – | – | – | COc1cccc2c1CCC2C(=O)NS(=O)(=O)c1c(C)noc1C (centres unmarked) [III-79]
< 50% | ≥ 10 µM | + (<150) | ≥ 10 µM | – | – | – | – | COc1cccc2c1CCC2C(=O)NS(=O)(=O)c1sc(C)nc1C (centres unmarked) [III-80]
< 50% | ≥ 10 µM | + (<150) | ≥ 10 µM | – | – | – | – | COc1cccc2c1CCC2C(=O)NS(=O)(=O)c1cccnc1 (centres unmarked) [III-81]
< 50% | ≥ 10 µM | + (<150) | ≥ 10 µM | – | – | – | – | COc1cccc2c1CCC2C(=O)NS(=O)(=O)c1ncccc1C(=O)N(C)C (centres unmarked) [III-82]
< 50% | ≥ 10 µM | + (<150) | ≥ 10 µM | – | – | – | – | COc1cccc2c1CCC2C(=O)NS(=O)(=O)c1cccnc1C#N (centres unmarked) [III-83]
< 50% | ≥ 10 µM | + (<150) | ≥ 10 µM | – | – | – | – | COc1cccc2c1CCC2C(=O)NS(=O)(=O)c1ccccn1 (centres unmarked) [III-84]
< 50% | ≥ 10 µM | ++ (≥150 and <350) | 3 to 10 µM | – | – | – | – | COc1ccc(-c2cccc3c2CCC3C(=O)NS(=O)(=O)c2ccccc2C)cn1 (centres unmarked) [III-85]
50 to 150% | 3 to 10 µM | ++ (≥150 and <350) | < 3 µM | – | – | – | – | Cc1ccccc1S(=O)(=O)NC(=O)C1CCc2c(-c3ccc(N4CCCCC4)nc3)cccc21 (centres unmarked) [III-86]
< 50% | ≥ 10 µM | + (<150) | ≥ 10 µM | – | – | – | – | Cc1ccccc1S(=O)(=O)NC(=O)C1CCc2c(-c3ccc(N4CCN(C)CC4)nc3)cccc21 (centres unmarked) [III-87]
< 50% | ≥ 10 µM | + (<150) | ≥ 10 µM | – | – | – | – | Cc1ccccc1S(=O)(=O)NC(=O)C1CCc2c(-c3cccnc3C)cccc21 (centres unmarked) [III-88]
< 50% | ≥ 10 µM | ++ (≥150 and <350) | 3 to 10 µM | – | – | – | – | Cc1ccccc1S(=O)(=O)NC(=O)C1CCc2c(-c3ccc(F)nc3)cccc21 (centres unmarked) [III-89]
< 50% | ≥ 10 µM | + (<150) | ≥ 10 µM | – | – | – | – | Cc1ccccc1S(=O)(=O)NC(=O)C1CCc2c(-c3ccc(N(C)C)nc3)cccc21 (centres unmarked) [III-90]
– | – | – | – | ≥ 10 µM | < 50% | ≥ 10 µM | + (<150) | Cc1ccccc1S(=O)(=O)NC(=O)C1CCc2c(-c3cncc(F)c3)cccc21 (centres unmarked) [III-91]
– | – | – | – | ≥ 10 µM | < 50% | ≥ 10 µM | + (<150) | Cc1cncc(-c2cccc3c2CCC3C(=O)NS(=O)(=O)c2ccccc2C)c1 (centres unmarked) [III-92]
– | – | – | – | ≥ 10 µM | < 50% | 3 to 10 µM | ++ (≥150 and <350) | Cc1ccccc1S(=O)(=O)NC(=O)C1CCc2c(-c3ccnc(F)c3)cccc21 (centres unmarked) [III-93]
– | – | – | – | ≥ 10 µM | < 50% | 3 to 10 µM | ++ (≥150 and <350) | Cc1ccccc1S(=O)(=O)NC(=O)C1CCc2c(-c3ccncc3F)cccc21 (centres unmarked) [III-94]
– | – | – | – | ≥ 10 µM | < 50% | ≥ 10 µM | + (<150) | Cc1cnccc1-c1cccc2c1CCC2C(=O)NS(=O)(=O)c1ccccc1C (centres unmarked) [III-95]
– | – | – | – | ≥ 10 µM | < 50% | ≥ 10 µM | + (<150) | Cc1cc(-c2cccc3c2CCC3C(=O)NS(=O)(=O)c2ccccc2C)ccn1 (centres unmarked) [III-96]

Emax (F508delCFTR [1]; normalized to positive control) | EC50 (F508delCFTR [1]) | Maximum % activity (with co-corrector) (F508delCFTR [2]; [3]) | EC50 (F508delCFTR [2]; with 2 μM co-corrector) | EC50 (F508delCFTR [1]; CSE-HRP assay) | Emax (F508delCFTR [1]; [4]) | EC50 (F508delCFTR [2]; [5]) | Maximum % activity (with co-corrector) (F508delCFTR [2]; [6]) | Compound
– | – | – | – | ≥ 10 µM | < 50% | ≥ 10 µM | + (<150) | Cc1ccccc1S(=O)(=O)NC(=O)C1CCc2c(-c3cn[nH]c3)cccc21 (centres unmarked) [III-97]
– | – | – | – | ≥ 10 µM | < 50% | ≥ 10 µM | + (<150) | Cc1ccccc1S(=O)(=O)NC(=O)C1CCc2c(-c3ccn[nH]3)cccc21 (centres unmarked) [III-98]
– | – | – | – | 3 to 10 µM | 50 to 150% | 3 to 10 µM | +++ (≥350) | Cc1ccccc1S(=O)(=O)NC(=O)C1CCc2c(-c3ccsc3)cccc21 (centres unmarked) [III-99]
– | – | – | – | ≥ 10 µM | < 50% | 3 to 10 µM | + (<150) | Cc1ccccc1S(=O)(=O)NC(=O)C1CCc2c(-c3ccc(N4CCOCC4)nc3)cccc21 (centres unmarked) [III-100]
– | – | – | – | ≥ 10 µM | < 50% | ≥ 10 µM | + (<150) | Cc1ccccc1S(=O)(=O)NC(=O)C1CCc2c(-c3c[nH]nc3C)cccc21 (centres unmarked) [III-101]
– | – | – | – | ≥ 10 µM | < 50% | ≥ 10 µM | + (<150) | Cc1ccccc1S(=O)(=O)NC(=O)C1CCc2c(-c3cnn(C)c3)cccc21 (centres unmarked) [III-102]
– | – | – | – | ≥ 10 µM | < 50% | 3 to 10 µM | ++ (≥150 and <350) | Cc1ccc(-c2cccc3c2CCC3C(=O)NS(=O)(=O)c2ccccc2C)o1 (centres unmarked) [III-103]
– | – | – | – | ≥ 10 µM | < 50% | ≥ 10 µM | + (<150) | Cc1ccccc1S(=O)(=O)NC(=O)C1CCc2c(-c3c(C)nn(C)c3C)cccc21 (centres unmarked) [III-105]
– | – | – | – | ≥ 10 µM | < 50% | ≥ 10 µM | + (<150) | Cc1ccccc1S(=O)(=O)NC(=O)C1CCc2c(-c3ccnn3C)cccc21 (centres unmarked) [III-106]
– | – | – | – | 3 to 10 µM | 50 to 150% | 3 to 10 µM | +++ (≥350) | COc1cccc2c1CCC[C@H]2C(=O)NS(=O)(=O)c1cccnc1N [III-107]
– | – | – | – | 3 to 10 µM | 50 to 150% | 3 to 10 µM | ++ (≥150 and <350) | Cc1ccc2c(c1)CCC2(C)C(=O)NS(=O)(=O)c1cccc(N)n1 (centres unmarked) [III-108]
– | – | – | – | ≥ 10 µM | < 50% | ≥ 10 µM | + (<150) | COc1cccc2c1CCC[C@H]2C(=O)NS(=O)(=O)c1cccc(N)n1 [III-109]
– | – | – | – | ≥ 10 µM | < 50% | ≥ 10 µM | + (<150) | Nc1cccc(S(=O)(=O)NC(=O)C2CCCc3cccc(Cl)c32)n1 (centres unmarked) [III-110]
– | – | – | – | ≥ 10 µM | < 50% | < 3 µM | ++ (≥150 and <350) | CCC1(C(=O)NS(=O)(=O)c2ccc(Cl)cc2Cl)CCc2c(Cl)cccc21 (centres unmarked) [III-113]
– | – | – | – | 3 to 10 µM | < 50% | < 3 µM | ++ (≥150 and <350) | CCC1(C(=O)NS(=O)(=O)c2ccc(C)cc2C)CCc2c(Cl)cccc21 (centres unmarked) [III-114]
– | – | – | – | < 3 µM | < 50% | < 3 µM | ++ (≥150 and <350) | CCC1(C(=O)NS(=O)(=O)c2c(F)cccc2F)CCc2c(Cl)cccc21 (centres unmarked) [III-115]
– | – | – | – | ≥ 10 µM | < 50% | ≥ 10 µM | + (<150) | CCC1(C(=O)NS(=O)(=O)c2cc(Cl)ccc2Cl)CCc2c(Cl)cccc21 (centres unmarked) [III-116]
– | – | – | – | 3 to 10 µM | < 50% | < 3 µM | ++ (≥150 and <350) | CCC1(C(=O)NS(=O)(=O)c2cccc(Cl)c2)CCc2c(Cl)cccc21 (centres unmarked) [III-117]
– | – | – | – | ≥ 10 µM | < 50% | ≥ 10 µM | + (<150) | CCC1(C(=O)NS(=O)(=O)c2cc(C)ccc2Cl)CCc2c(Cl)cccc21 (centres unmarked) [III-118]
– | – | – | – | ≥ 10 µM | < 50% | 3 to 10 µM | + (<150) | CCC1(C(=O)NS(=O)(=O)c2ccc(OC(F)(F)F)cc2)CCc2c(Cl)cccc21 (centres unmarked) [III-119]
– | – | – | – | ≥ 10 µM | < 50% | ≥ 10 µM | + (<150) | CCC1(C(=O)NS(=O)(=O)c2ccccc2C#N)CCc2c(Cl)cccc21 (centres unmarked) [III-120]
– | – | – | – | ≥ 10 µM | < 50% | ≥ 10 µM | + (<150) | CCC1(C(=O)NS(=O)(=O)c2c(OC)cccc2OC)CCc2c(Cl)cccc21 (centres unmarked) [III-121]
